# Where a name gives a salt, the structure may show the parent alone.
# Tests used:
# KRAS_WT and SOS1 = molecular target: T1, KRAS_WT and SOS1 (Homo sapiens, UniProt P01116); test: Inhibition of KRAS_WT/SOS1 binding (Cisbio binding kit, 665/615 ratio), Effect Embodiment C; settings: read-out: GTP-KRAS-WT:SOS1 IC50
# T1 construct: purchased
# Procedure, shortened: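 Compounds tested as 3-fold, 11-point dilutions in duplicate at 1% DMSO final against the KRAS_WT/SOS1 binding system. IC50 derived by nonlinear regression fit.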
# KRAS_G12D and cRAF = molecular target: T2, KRAS_G12D and cRAF (Homo sapiens, UniProt P01116, G12D); test: Inhibition of KRAS_G12D/cRAF binding (Cisbio binding kit, 665/615 ratio), Effect Embodiment B; settings: read-out: GTP-KRAS-G12D:CRAF IC50
# T2 construct: purchased
# T2 sequence (P01116 1-188 isoform P01116-2 G12D): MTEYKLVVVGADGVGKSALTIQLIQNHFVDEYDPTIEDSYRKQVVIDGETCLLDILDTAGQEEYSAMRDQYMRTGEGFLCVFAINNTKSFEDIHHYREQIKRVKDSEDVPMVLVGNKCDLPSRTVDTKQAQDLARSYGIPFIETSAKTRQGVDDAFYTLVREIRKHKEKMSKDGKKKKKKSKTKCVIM
# Procedure, shortened: (§1)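 Compounds underwent 3-fold dilution from their storage solutions (11 points), were transferred to assay wells in duplicate with DMSO held at 1% final, and were briefly centrifuged.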
# KRAS-G12D and SOS1 = molecular target: T3, KRAS-G12D and SOS1 (Homo sapiens, UniProt P01116, G12D); test: Inhibition of KRAS-G12D/SOS1 binding (Cisbio binding kit, 665/615 ratio), Effect Embodiment A; settings: read-out: GTP-KRAS-G12D:SOS1 IC50
# T3 construct: purchased
# T3 sequence (P01116 1-188 isoform P01116-2 G12D): as above
# Procedure, shortened: as §1
# T1 sequence (P01116 1-188 isoform P01116-2): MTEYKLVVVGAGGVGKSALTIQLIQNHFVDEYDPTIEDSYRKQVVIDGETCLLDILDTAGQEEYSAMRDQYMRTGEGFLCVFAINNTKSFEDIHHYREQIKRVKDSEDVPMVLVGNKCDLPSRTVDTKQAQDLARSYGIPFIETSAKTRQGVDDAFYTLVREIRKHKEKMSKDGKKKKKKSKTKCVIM
Compound,IC50 (KRAS_WT and SOS1) [nM],IC50 (KRAS_G12D and cRAF) [nM],IC50 (KRAS-G12D and SOS1) [nM]
"CCc1cccc2cc(O)cc(-c3c(F)cc4c(N5CC6CCC(C5)N6)nc(OCCCN5C[C@@H](C)O[C@@H](C)C5)nc4c3F)c12 (single isomer, unassigned) [Compound 283a, (S or R)-4-(4-((1R,5S)-3,8-diazacyclo[3.2.1]octan-3-yl)-2-(3-((2S,6R)-2,6-dimethylmorpholinylpropoxy)-6,8-difluoroquinazolin-7-yl)-5-ethylnaphthalen-2-oldihydrochloride]",761,19.2,15.8
"CN1CCC[C@H]1COc1nc(N2C[C@H]3CC[C@@H](C2)N3)c2ccc(-c3cc(O)cc4ccccc34)c(F)c2n1 [Compound 144, 4-(4-((1R,5S)-3,8-diazabicyclo[3.2.1]octan-3-yl)-8-fluoro-2-((S)-1-methylpyrrolidin-2-yl)methoxy)quinazolin-7-yl)naphthalen-2-ol tritrifluoroacetate]",180,17.9,14.4
"C[C@@H]1COC[C@@H](C)N1CCCOc1nc(N2C[C@H]3CC[C@@H](C2)N3)c2cc(Cl)c(-c3cc(O)cc4ccccc34)c(F)c2n1 (single isomer, unassigned) [Compound 164, (R or S)-4-(4-((1R,5S)-3,8-diazabicyclo[3.2.1]octan-3-yl)-6-chloro-2-(3-((3R,5R)-3,5-dimethylmorpholinyl)propoxy)-8-fluoroquinazolin-7-yl)naphthalen-2-ol dihydrochloride]",2530,115,43.9
"Oc1cc(-c2c(Cl)cc3c(N4CC5CCC(C4)N5)nc(OCC4(CN5CCCC5)CC4)nc3c2F)c2ccccc2c1 (single isomer, unassigned) [Compound 97, 4-((S or R)-4-((1R,5S)-3,8-diazabicyclo[3.2.1]octan-3-yl)-6-chloro-8-fluoro-2-((1-(pyrrolidin-1-ylmethyl)cyclopropyl)methoxy)quinazolin-7-yl)naphthalen-2-ol]",291,15.6,18.9
"CN(C)CCOc1nc(N2CC3CCC(C2)N3)c2cc(Cl)c(-c3cc(O)cc4ccccc34)c(F)c2n1 (single isomer, unassigned) [Compound 48a, 4-((S or R)-4-((1R,5S)-3,8-diazabicyclo[3.2.1]octan-3-yl)-6-chloro-2-(2-(dimethylamino)ethoxy)-8-fluoroquinazolin-7-yl)naphthalen-2-ol]",6020,130,23.8
"CN1C[C@H](F)C[C@H]1COc1nc(N2CC3CCC(C2)N3)c2cc(Cl)c(-c3cc(O)cc4ccccc34)c(F)c2n1 (single isomer, unassigned) [Compound 168, (R or S)-4-(4-((1R,5S)-3,8-diazabicyclo[3.2.1]octan-3-yl)-6-chloro-8-fluoro-2-((2S,4R)-4-fluoro-1-methylpyrrolidin-2-yl)methoxy)quinazolin-7-yl)naphthalenol dihydrochloride]",458,22.4,18.7
"CN(C)[C@H]1C[C@H](Oc2nc(N3CC4CCC(C3)N4)c3cc(Cl)c(-c4cc(O)cc5ccccc45)c(F)c3n2)C1 (single isomer, unassigned) [Compound 69b, 4-((S or R)-4-((1R,5S)-3,8-diazabicyclo[3.2.1]octan-3-yl)-6-chloro-2-((1R,3S)-3-(dimethylamino)cyclobutoxy)-8-fluoroquinazolin-7-yl)naphthalen-2-ol dihydrochloride]",> 100000,1960,157
"Oc1cc(-c2c(Cl)cc3c(N4CC5CCC(C4)N5)nc(OCC4CCC5COCCN5C4)nc3c2F)c2ccccc2c1 (single isomer, unassigned) [Compound 264b, 4-((R or S)-4-((1R,5S)-3,8-diazacyclo[3.2.1]octan-3-yl)-6-chloro-8-fluoro-2-((7R or 7S, 9aR or 9aS)-octahydropyridine[2,1-c][1,4]oxazin-7-yl)methoxy)quinazolin-7-yl)naphthalen-2-ol formate]",196,101,19.3
"C[C@@H](COc1nc(N2CC3CCC(C2)N3)c2cc(Cl)c(-c3cc(O)cc4ccccc34)c(F)c2n1)CN1C[C@H](C)OC[C@@H]1C (single isomer, unassigned) [Compound 225, 4-((S or R)-4-((1R,5S)-3,8-diazabicyclo[3.2.1]octan-3-yl)-6-chloro-2-((R)-3-((2S,5S)-2,5-dimethylmorpholinyl)-2-methylpropoxy)-8-fluoroquinazolin-7-yl)naphthalenol formate]",969,17.8,17.2
"CN(C)C1CN(c2nc(N3CCNCC34CC4)c3cc(Cl)c(-c4cc(O)cc5ccccc45)c(F)c3n2)C1 (single isomer, unassigned) [Compound 19a, (R or S)-4-(6-chloro-2-(3-(dimethylamino)azetidin-1-yl)-8-fluoro-4-(4,7-diazaspiro[2.5]octan-4-yl)quinazolin-7-yl)naphthalen-2-ol]",9420,1630,898
"CC(COc1nc(N2CC3CCC(C2)N3)c2cc(Cl)c(-c3cc(O)cc4ccccc34)c(F)c2n1)CN1C2CCC1COC2 (single isomer, unassigned) [Compound 178a, 4-((7R or 7S)-2-((2R or 2S)-3-(3-oxa-8-azabicyclo[3.2.1]octan-8-yl)-2-methylpropoxy)-4-((1R,5S)-3,8-diazabicyclo[3.2.1]octan-3-yl)-6-chloro-8-fluoroquinazolin-7-yl)naphthalen-2-ol diformate]",836,18.1,21.6
"Oc1cc(-c2c(Cl)cc3c(N4CC5CCC(C4)N5)nc(OCCCN4CCC4)nc3c2F)c2ccccc2c1 (single isomer, unassigned) [Compound 59a, 4-((S or R)-2-(3-(azetidin-1-yl)propoxy)-4-((1R,5S)-3,8-diazabicyclo[3.2.1]octan-3-yl)-6-chloro-8-fluoroquinazolin-7-yl)naphthalen-2-ol]",2080,182,45.4
"CC1OCCN(CCCOc2nc(N3CC4CCC(C3)N4)c3cc(Cl)c(-c4cc(O)cc5ccccc45)c(F)c3n2)C1C (single isomer, unassigned) [Compound 265b, 4-((R or S)-4-((1R,5S)-3,8-diazabicyclo[3.2.1]octan-3-yl)-6-chloro-2-(3-((2S or 2R, 3R or 3S)-2,3-dimethylmorpholinyl)propoxy)-8-fluoroquinazolin-7-yl)naphthalen-2-ol diformate]",7850,199,59.6
"CC[C@@H]1CN(CCCOc2nc(N3CC4CCC(C3)N4)c3cc(Cl)c(-c4cc(O)cc5ccccc45)c(F)c3n2)C[C@H](CC)O1 (single isomer, unassigned) [Compound 221, 4-((S or R)-4-((1R,5S)-3,8-diazabicyclo[3.2.1]octan-3-yl)-6-chloro-2-(3-((2S,6R)-2,6-diethylmorpholinyl)propoxy)-8-fluoroquinazolin-7-yl)naphthalen-2-ol formate]",5030,175,63.6

# From patent US20230365563A1, “QUINAZOLINE COMPOUND AND APPLICATION THEREOF” (SHANGHAI PHARMACEUTICALS HOLDING CO., LTD., priority 2020, published 2023)
